# Values quoted from earlier work, collected in patent publication US12054764B2, “High-throughput screens for exploring biological functions of microscale biological systems” (THE BROAD INSTITUTE, INC., priority 2017, dated 2024).
# System: E. coli
# Details: stated in the legend of FIG. 10 as the loading concentration in 2% ultra-low melt agarose droplets
smiles,measurement,value
CC1(C)S[C@@H]2[C@H](NC(=O)[C@H](N)c3ccccc3)C(=O)N2[C@H]1C(=O)O [Ampicillin],minimum inhibitory concentration (MIC),5 µg/mL
